Measured values reported in patent US11168072B2, “Crystal form of morpholino quinazoline compound, preparation method therefor and use thereof” (SHANGHAI YINGLI PHARMACEUTICAL CO., LTD, priority 2018, dated 2021).
Entries after “also recorded” stand apart in the source; their conditions may differ.

Columns and labels:
Type in all cases: physicochemical
[1] = Stability under high temperature, high humidity, illumination (influencing factors); conditions: for stability under illumination conditions (conclusion): illumination 4500±500 Lux; for changes in the appearance: illumination, high temperature (60° C.) and high humidity (25° C., RH75%) for 10 days
Method: Appropriate amount of the samples of the crystal form I of the morpholino quinazoline compound represented by formula A were placed on culture dishes which were then left open under high temperature (40±2° C. and 60±2° C.), high humidity (25° C., RH75±5% and RH90±5%) and illumination (4500±500 Lux, 25° C.) conditions, respectively.
Appropriate amount of the samples of the amorphous form of the morpholino quinazoline compound represented by formula A and the samples of the crystal form II of the morpholino quinazoline compound represented by formula A were placed on culture dishes respectively, which were then left open under high temperature (60±2° C.), high humidity (25° C., RH75±5%) and illumination (4500±500 Lux, 25° C.) conditions, respectively.

[2] = Dynamic vapor sorption analysis (DVS); conditions: for increase by mass compared to the initial mass (DVS weight gain): relative humidity from 0% to 95%
Method: (§1) Dynamic vapor sorption analysis (DVS): about 10 mg of the sample was taken and dried for 60 minutes under a temperature set at 25° C. and a humidity of 0% RH, and then the moisture sorption characteristics of the sample when the humidity changed from 0% RH to 95% RH was tested, and the moisture desorption characteristics of the sample when the humidity changed from 95% RH to 0% RH was tested; the humidity change step was 5% RH; the value of the mass change rate dm/dt less than 0.002% was considered as balance equilibrium, the rate of mass change within 5 minutes less than 0.01%/minute was considered as the equilibrium standard in the testing process, and the maximum equilibrium time was 2 hours. The isothermal water adsorption/desorption characteristics under this test condition were determined and XRPD detection was performed on the samples after the DVS test.
as §1, with “About” for “Dynamic vapor sorption analysis (DVS): about”

[3] = Stability of crystal form in water and organic solvents at room temperature for 10 days (suspension, XRPD)
Method: About 20 mg of solid samples of the crystal form I of the morpholino quinazoline compound represented by formula A were weighed respectively and placed into vials, 1 mL of water or organic solvent was added to the vials respectively, and sonicated for 5 min to obtain suspensions. The suspensions were spun at room temperature for 10 days and the filtered wet samples were characterized by XRPD.

[4] = Stability in organic solvents with slurrying at high temperature for 18 hours (XRPD); conditions: slurried in ethanol, isopropanol and n-heptane at 80° C. for 18 hours
Method: To 5 g of the crystal form I of the morpholino quinazoline compound represented by formula A was added 10 g of ethanol, 10 g of isopropanol, and 10 g of n-heptane. The mixture was slurried at 80° C. for 18 hours, cooled to room temperature, filtered, and dried under vacuum at less than 85° C. for 16 hours to obtain about 4 g of sample.

[5] = high temperature (60° C.) and high humidity (25° C., RH75%)
[6] = illumination 4500 Lux ± 500 Lux, 25° C., 5 days
[7] = illumination 4500 Lux ± 500 Lux, 25° C., 10 days
[8] = illumination (4500±500 Lux, 25° C.)
[9] = illumination 4500 Lux ± 500 Lux, 25° C., 1 month

COc1ncc(-c2nc(N3CCOCC3)nc3c(CN4CCC(C(C)(C)O)CC4)cc(F)cc23)cc1NS(C)(=O)=O [Amorphous form]
Content (%) ([1]; 0 day): 98.60%
Total impurities (%) ([1]; 0 day): 1.32%
Total impurities (%) ([1]; 25° C., RH 75 ± 5%, 5 days): 1.37%
Total impurities (%) ([1]; 25° C., RH 75 ± 5%, 10 days): 1.31%
Content (%) ([1]; 60° C., 5 days): 98.43%
Content (%) ([1]; 60° C., 10 days): 98.48%
Total impurities (%) ([1]; 60 ± 2° C., 5 days): 1.54%
Total impurities (%) ([1]; 60 ± 2° C., 10 days): 1.46%
Content (%) ([1]; 75% RH (25° C.), 5 days): 98.51%
Content (%) ([1]; 75% RH (25° C.), 10 days): 98.62%
change of total impurities content [1, 5]: increases slightly
Content (%) [1, 6]: 98.29%
Total impurities (%) [1, 6]: 1.68%
Content (%) [1, 7]: 97.80%
Total impurities (%) [1, 7]: 2.16%
stability under illumination conditions (conclusion) ([1]; 25° C.): unstable
change of total impurities content [1, 8]: increases significantly
changes in the appearance [1]: no significant changes

COc1ncc(-c2nc(N3CCOCC3)nc3c(CN4CCC(C(C)(C)O)CC4)cc(F)cc23)cc1NS(C)(=O)=O [Crystal form II]
Content (%) ([1]; 0 day): 96.65%
Total impurities (%) ([1]; 0 day): 3.28%
Total impurities (%) ([1]; 25° C., RH 75 ± 5%, 5 days): 3.18%
Total impurities (%) ([1]; 25° C., RH 75 ± 5%, 10 days): 3.61%
Content (%) ([1]; 60° C., 5 days): 95.85%
Content (%) ([1]; 60° C., 10 days): 97.0%
Total impurities (%) ([1]; 60 ± 2° C., 5 days): 4.04%
Total impurities (%) ([1]; 60 ± 2° C., 10 days): 2.97%
Content (%) ([1]; 75% RH (25° C.), 5 days): 96.75%
Content (%) ([1]; 75% RH (25° C.), 10 days): 96.24%
change of total impurities content [1, 5]: increases slightly
Content (%) [1, 6]: 96.26%
Total impurities (%) [1, 6]: 3.64%
Content (%) [1, 7]: 95.80%
Total impurities (%) [1, 7]: 4.14%
stability under illumination conditions (conclusion) ([1]; 25° C.): unstable
change of total impurities content [1, 8]: increases significantly
changes in the appearance [1]: no significant changes
increase by mass compared to the initial mass (DVS weight gain) ([2]; 25° C.): 6.237%
increase by mass compared to the initial mass (DVS weight gain) ([2]; 25° C., listed as crystal type II): 6.237%
weight gain of crystal form II relative to that of crystal form I ([2]; relative humidity from 0 to 95%): 18 times

COc1ncc(-c2nc(N3CCOCC3)nc3c(CN4CCC(C(C)(C)O)CC4)cc(F)cc23)cc1NS(C)(=O)=O [Crystal form I]
stability under high temperature, high humidity and illumination conditions (conclusion) [1]: good stability
Moisture (%) ([1]; 0 day): 0.07%
Total impurities (%) ([1]; 0 day): 0.1%
Moisture (%) ([1]; 25° C., RH 75 ± 5%, 1 month): 0.1%
Total impurities (%) ([1]; 25° C., RH 75 ± 5%, 1 month): 0.1%
Moisture (%) ([1]; 25° C., RH 75 ± 5%, 5 days): 0.1%
Total impurities (%) ([1]; 25° C., RH 75 ± 5%, 5 days): 0.1%
Moisture (%) ([1]; 25° C., RH 75 ± 5%, 10 days): 0.2%
Total impurities (%) ([1]; 25° C., RH 75 ± 5%, 10 days): 0.1%
Moisture (%) ([1]; 25° C., RH 90 ± 5%, 1 month): 0.1%
Total impurities (%) ([1]; 25° C., RH 90 ± 5%, 1 month): 0.1%
Moisture (%) ([1]; 25° C., RH 90 ± 5%, 5 days): 0.2%
Total impurities (%) ([1]; 25° C., RH 90 ± 5%, 5 days): 0.1%
Moisture (%) ([1]; 25° C., RH 90 ± 5%, 10 days): 0.2%
Total impurities (%) ([1]; 25° C., RH 90 ± 5%, 10 days): 0.1%
Moisture (%) ([1]; 40 ± 2° C., 1 month): 0.1%
Total impurities (%) ([1]; 40 ± 2° C., 1 month): 0.1%
Moisture (%) ([1]; 40 ± 2° C., 5 days): 0.1%
Total impurities (%) ([1]; 40 ± 2° C., 5 days): 0.1%
Moisture (%) ([1]; 40 ± 2° C., 10 days): 0.2%
Total impurities (%) ([1]; 40 ± 2° C., 10 days): 0.1%
Moisture (%) ([1]; 60 ± 2° C., 1 month): 0.1%
Total impurities (%) ([1]; 60 ± 2° C., 1 month): 0.1%
Moisture (%) ([1]; 60 ± 2° C., 5 days): 0.2%
Total impurities (%) ([1]; 60 ± 2° C., 5 days): 0.1%
Moisture (%) ([1]; 60 ± 2° C., 10 days): 0.2%
Total impurities (%) ([1]; 60 ± 2° C., 10 days): 0.1%
Moisture (%) [1, 9]: 0.1%
Total impurities (%) [1, 9]: 0.2%
Moisture (%) [1, 6]: 0.1%
Total impurities (%) [1, 6]: 0.1%
Moisture (%) [1, 7]: 0.1%
Total impurities (%) [1, 7]: 0.1%
hygroscopicity (conclusion) [2]: less hygroscopicity; also recorded: very low hygroscopicity
increase by mass compared to the initial mass (DVS weight gain) ([2]; 25° C.): 0.34%
increase by mass compared to the initial mass (DVS) ([2]; relative humidity from 0 to 90%, 25° C.): 0.23%
stability in water and organic solvents (conclusion) ([3]; room temperature and high temperature): good stability
crystal form of filtered wet sample by XRPD ([3]; suspension in water or organic solvents, room temperature, 10 days): did not change
X-ray powder diffraction pattern versus crystal form I of Example 1 [4]: consistent
